Data from patent US20240269194A1, “COMPOSITIONS AND METHODS FOR ISLET CELL TRANSPLANTS” (City of Hope, priority 2021, published 2024).
“Also recorded” adds a separate entry of the source.

How the values were obtained:
gastrin receptor CCKBR = target: T1, gastrin receptor CCKBR (Homo sapiens, UniProt P32239); experiment: Gastrin receptor blockade with YM022, qPCR in human islets; format: cell-based; conditions: YM022 together with 100 nM gastrin, donors with high HbA1c
T1 construct: Human islets express the gastrin receptor CCKBR; from tissue; host or cells: isolated human pancreatic islets from donors
Procedure: To establish that gastrin effect is mediated through activation of the gastrin receptor CCKBR, islets were treated with either 100 nM gastrin or 100 nM gastrin together with the CCKBR antagonist YM022.

T1D patients = format: in vivo, human
Procedure: Gastrin is a natural hormone that is secreted by the stomach and is involved in fetal pancreas development. […] Building on these observations, it was tested whether gastrin treatment will improve islet engraftment, induced beta cell expansion/function, and enhanced islet transplant outcomes in T1D individuals. A gastrin analogue (GAST-17) was produced and obtained FDA-IND approval to evaluate its safety and efficacy in a Phase I/II, prospective, single-arm trial to improve outcomes in T1D recipients undergoing a single islet transplant and two 30-day courses for GAST-17. The trial has been initiated with the first two treated individuals achieving insulin independence with roughly half of the islet dose normally required.
The success of clinical islet transplantation depends on transplantation of adequate islet mass and minimizing graft loss secondary to ischemia and inflammation. After infusion into the portal vein, islets are exposed to damaging inflammatory factors (the so-called instant blood-mediated inflammatory reaction, IBMIR). This involves activation of the complement and coagulation cascades, ultimately resulting in clot formation and infiltration of leukocytes into the islets. The IBMIR may be triggered by islet surface molecules, such as tissue factor and collagen residues that are normally not in direct contact with the blood. Also, ischemic stress during islet isolation results in production of inflammatory mediators by islets. Strategies to mitigate the IBMIR include the treatment of recipients with anticoagulants or pre-conditioning islets with anti-inflammatory agents. As inflammatory reactions are thought to negatively impact islet engraftment in the early post-transplant period, etanercept, a TNFα mitigator, and anakinra, an IL-1 receptor antagonist, are used to limit acute transplant-related inflammation. […]
Treatment course 1. […] Subjects are monitored for adverse effects and assessed for preliminary efficacy at 1, 2.5, and 6 months after starting the first course of GAST-17. […]

non-diabetic Wistar rats = experiment: Beta and alpha cell content of pancreas by laser scanning cytometry after 30-day treatment; format: in vivo, rat
Procedure: The islet expansion effects of GAST-17 were evaluated in non-diabetic Wistar rats (10 males and 10 females in each group). At the end of 30-day treatment, animals were terminated, pancreata excised and immuno-stained for beta and alpha cell content using laser scanning cytometry (LSC) (FIGS. 2A and 2B).
Gastrin analogue, GAST-17, stimulates beta cell expansion. T2D individuals display a loss of beta cell numbers and function. Increasing beta cell mass is considered a possible therapy for T2D (37). The islet expansion effects of GAST-17 were evaluated in non-diabetic Wistar rats (10 males and 10 females in each group). At the end of 30-day treatment, pancreata were excised and stained for beta and alpha cell content counting using laser scanning cytometry (FIGS. 24A and 24B).

[1] = system: transplanted human islets; experiment: Human islets transplanted to livers of NOD mice: 18F-TCE4 microPET, insulin staining, blood glucose; format: in vivo, mouse; conditions: 150 μg/kg/dose three times daily, 30 days
Procedure: Isolated human islets were transplanted (Tx) to the livers of NOD mice followed by GAST-17 treatment for 30 days (150 μg/kg/dose, injected three times daily) (Tx+Treated, n=7) and compared to mice receiving islet transplant alone (Tx only, n=5) and untreated controls (Normal, n=5). After completion of treatment, whole mice and organs of interest were imaged (in vivo and ex vivo) with ^18F-TC-Exendin-4 (TCE4) using microPET and a high specific activity labeling technique developed at COH for targeting islets (49). […] Beta cell mass was calculated as percent beta cell area of the total cell surface area found on immunolabeled tissue sections. Data from 4 livers from mice treated with islet transplant alone (“−Gastrin”) and five livers from mice treated with islet transplant and gastrin treatment (“+Gastrin”) (˜32 slides per liver) were assessed.
Gastrin analogue, GATS-17, promotes expansion/neogenesis of transplanted human islets. Isolated human islets were transplanted (Tx) into livers of NOD/SCID mice followed by GAST-17 treatment for 30 days (150 μg/kg/dose, injected three times daily) (Tx+Treated, n=7) and compared to mice receiving islet transplant alone (Tx only, n=5) and untreated controls (Normal, n=5). After completion of treatment, whole mice and organs of interest were imaged (in vivo and ex vivo) with ^18F-TC-Exendin-4 (TCE4) using microPET (a high specific activity labeling technique developed at COH for targeting islets).

human islets [2] = experiment: qPCR gene expression in isolated human islets treated for 48 hours; format: cell-based
Procedure: Isolated human islets from 11 donors with varied glycemic control (HbA1c 5.2-10.4) were treated with GAST-17 for 48 hours and gene expression was analyzed by qPCR. […] Gene expression levels were not increased in islets from donors with an HbA1c <6.0 (FIG. 9). The increase in insulin mRNA correlated with the HbA1c levels, with higher insulin transcripts seen in islets from donors with more elevated HbA1c (FIG. 10).

human islets [3] = experiment: Long-term human islet culture with and without GAST-17, inflammatory gene expression; format: cell-based; conditions: non-diabetic donors, long-term culture (1516 days), 21% oxygen
Procedure: Long-term islet culture is associated with expression of inflammatory cytokines and islet stress/damage. Human islets from non-diabetic donors were cultured with and without GAST-17 long-term (1516 days) at normal oxygen concentrations (21%).

human islets [4] = experiment: Human islets challenged with inflammatory cytokines, glucose-mediated insulin secretion; format: cell-based; conditions: inflammatory cytokine challenge
Procedure: Gastrin is expressed in insulin^+ and somatostatin^+ cells in islets from people with T2D. As noted, gastrin increased insulin/somatostatin in delta cells, and this correlated positively with islet donor A1c levels (64). Extending these published and new findings, human islets were challenged with inflammatory cytokines (to mimic the harsh environment of transplantation) in the presence and absence of GAST-17 and glucose-mediated insulin secretion was determined.

[5] = donors HbA1c >6.0 (n=5), P<0.0001

T1 sequence (P32239 whole entry): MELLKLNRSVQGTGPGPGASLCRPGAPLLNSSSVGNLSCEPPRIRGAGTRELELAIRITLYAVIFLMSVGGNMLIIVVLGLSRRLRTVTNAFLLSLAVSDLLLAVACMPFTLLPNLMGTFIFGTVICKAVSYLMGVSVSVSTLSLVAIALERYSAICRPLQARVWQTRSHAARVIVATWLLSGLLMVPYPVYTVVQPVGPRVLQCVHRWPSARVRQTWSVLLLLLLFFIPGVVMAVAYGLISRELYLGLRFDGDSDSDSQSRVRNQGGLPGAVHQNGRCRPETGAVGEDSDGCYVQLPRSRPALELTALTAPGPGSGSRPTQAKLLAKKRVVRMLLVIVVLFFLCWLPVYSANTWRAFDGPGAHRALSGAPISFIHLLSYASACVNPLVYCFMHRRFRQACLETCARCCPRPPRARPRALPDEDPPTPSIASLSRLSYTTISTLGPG

Cc1cccc(NC(=O)N[C@@H]2N=C(c3ccccc3)c3ccccc3N(CC(=O)c3ccccc3C)C2=O)c1 [YM022]
insulin, somatostatin and glucagon mRNA levels (gastrin receptor CCKBR): remained un-changed

[Leu^15] Gastrin-17 [GAST-17]
insulin independence (T1D patients; first two T1D patients, single islet transplant <6,100 IEQ/kg): achieving insulin independence with half of the islet mass normally required
engraftment and blood glucose normalization (T1D patients; two T1D individuals, 15 μg/kg twice daily, month 1 and 7, <6,100 IEQ/kg): rapid engraftment and total normalization of blood glucose
time to insulin freedom (T1D patients; two patients, single IT (<6,100 IEQ/kg BW)): achieved insulin freedom within two weeks
percentage of alpha cells (non-diabetic Wistar rats; 30-day treatment vs controls): did not change
average percentage of beta cells of total cells per slide (non-diabetic Wistar rats; 30-day treatment, all treatment groups vs controls): significantly increased
native beta cell expansion, ex vivo imaging of the pancreas ([1]; p=0.000063): significant expansion
18F-TCE4 uptake by islet grafts in liver, in vivo (whole body images) ([1]; vs control group, p=0.000015): significantly increased; also recorded: significantly higher
18F-TCE4 uptake by islet grafts, ex vivo (excised liver) ([1]; vs control group, p=0.000036): significantly increased; also recorded: significantly higher
gene expression levels (insulin, somatostatin, glucagon) (human islets [2]; donors HbA1c <6.0): not increased
insulin transcripts (human islets [2]; [5]): significant increase
somatostatin transcripts (human islets [2]; [5]): significant increase
glucagon transcripts (human islets [2]; donors HbA1c >6.0 (n=5), P<0.02): significant increase
mRNA levels of transcription factors MAFA, MNX1, NKX2.2, NKX6.1, PDX1 and HHEX (human islets [2]; only in HbA1c >6.0 group): significant increases
expression of IL-10 (human islets [3]): increased expression of IL-10
islet expression of inflammatory genes (human islets [3]): reduced islet expression of inflammatory genes
glucose-mediated insulin secretion (human islets [4]): enhanced insulin secretion
human islet damage from inflammatory cytokines (human islets [4]): reduced human islet damage from inflammatory cytokines
insulin+/somatostatin+ cell numbers (human islets [4]): increased insulin+/somatostatin+ cell numbers
